Where no end group is shown, it is not given here.
Tested on: Male C57BL/6 mice
Experiment: Food intake in mice after a single intravenous injection of urocortin derivatives
Assay type: in vivo
Protocol: The potency of several modified urocortin derivatives were determined by measuring food intake in mice. A study was performed with native human urocortin 1, 2 and 3 to select a dose and to determine whether the IV route was adequate for native peptides. Following the initial study, two additional studies were performed in which the effect of modified derivatives and native peptides were compared.
Male C57BL/6 mice (22-26g) were housed 3 per cage and fed with standard chow. The night before dosing, mice were food restricted i.e., they were given only half of the amount of food ingested during the previous night. Dosing was performed between 9 and 10 a.m. Mice received a single intravenous injection (5 ml/kg via the tail vein) of saline or urocortin derivatives diluted in saline. Food intake was measured by placing preweighed pellets in the cage and weighing the uneaten pellets at 1, 2, 4, 6, 24 and 48 hours postdose.

[1] = Study No. 2, FIG. 3, (Ucn II and III derivatives)
[2] = Study No. 2, FIG. 3, 20 nmol/kg (Ucn I derivatives)

Substance: IVLSLDVPIGLLQILLEQARAK-(ε-AEEA-MPA) AAR EQATT NARIL ARV-NH2 (IVLSLDVPIGLLQILLEQARAKAAREQATTNARILARV; Lys-AEEA-MPA, C-terminal amide) [SEQ ID No. 83, Modified peptide of human urocortin 2]
- inhibition of food intake as compared to the control group (Study No. 1, FIG. 1, 85 nmol/kg, 4-6 hour time interval): 50%
- duration of activity on food intake compared with the other tested compounds [1]: most prolonged activity

Substance: FTLSL DVPTN IMNLL FNIAK(ε-AEEA-MPA) ARNLR AQAAA NAHLM AQI-NH2 (FTLSLDVPTNIMNLLFNIAKARNLRAQAAANAHLMAQI; Lys-AEEA-MPA, C-terminal amide) [SEQ ID No. 85, Modified peptide of human urocortin 3]
- 'rebound' of food intake as compared to the control [1]: increase of food intake as compared to the control

Substance: FTLSLDVPTNIMNLLFNIAKAKNLRAQAAANAHLMAQI-NH2 (FTLSLDVPTNIMNLLFNIAKAKNLRAQAAANAHLMAQI-NH2; listed as Homo sapiens) [Urocortin III, Human Urocortin 3 (38 Amino-acids), native peptide]
- 'rebound' of food intake as compared to the control [1]: increase of food intake as compared to the control
- activity on food intake versus the free peptide [1]: much less active than the free peptide
- period of decreased food intake [1]: decreased food intake during the first hour after injection only

Substance: IVLSLDVPIGLLQILLEQARARAAREQATTNARILARVGHC-NH2 (IVLSLDVPIGLLQILLEQARARAAREQATTNARILARVGHC-NH2; listed as Homo sapiens) [SEQ ID No. 92]
- food intake in the 1-2 h time period versus control (Study No. 1, FIG. 1, 85 nmol/kg, 1-2 h postdose): back to the control
- time over which food intake was reduced/inhibited postdose (Study No. 1, FIG. 1, normal mice, 85 nmol/kg): up to 1 hour
- cumulative food intake versus saline control (Study No. 1, FIG. 2, 85 nmol/kg, at 6 hours postdose): still lower than the saline control

Substance: DNPSLSIDLTFHLLRTLLELARTQSQRERAEQNRIIFDSV-NH2 (DNPSLSIDLTFHLLRTLLELARTQSQRERAEQNRIIFDSV-NH2; listed as Homo sapiens) [human urocortin 1, Human Urocortin 1 (40 Amino-acids), native peptide]
- time up to which food intake was reduced [2]: up to 4 hours

Substance: DNPSLSIDLTFHLLRTLLELAK-(ε-AEEA-MPA)TQS QRERA EQNRI IFDSV-NH2 (DNPSLSIDLTFHLLRTLLELAKTQSQRERAEQNRIIFDSV; Lys-AEEA-MPA, C-terminal amide) [SEQ ID No. 80, Modified peptide of human urocortin 1]
- 'rebound' of food intake as compared to the control [2]: increase of food intake as compared to the control
